Measurements as given in patent US11192867B2, “Microbiocidal oxadiazole derivatives” (SYNGENTA PARTICIPATIONS AG, priority 2016, dated 2021).

Key:
[1] = tested on: Puccinia recondita f. sp. Tritici; assay: Fungicidal activity against Puccinia recondita f. sp. Tritici / wheat / leaf disc curative (brown rust); format: in vivo; details: foliar, 24 h, 200 ppm in the applied formulation, wheat leaf segments cv. Kanzler, applied 1 day after inoculation, vs untreated control, read-out: disease control
Description: Leaf disks or leaf segments of various plant species are cut from plants grown in a greenhouse. The cut leaf disks or segments are placed in multiwell plates (24-well format) onto water agar. The leaf disks are sprayed with a test solution before (preventative) or after (curative) inoculation. Compounds to be tested are prepared as DMSO solutions (max. 10 mg/ml) which are diluted to the appropriate concentration with 0.025% Tween20 just before spraying. The inoculated leaf disks or segments are incubated under defined conditions (temperature, relative humidity, light, etc.) according to the respective test system. A single evaluation of disease level is carried out 3 to 14 days after inoculation, depending on the pathosystem. Percent disease control relative to the untreated check leaf disks or segments is then calculated.
Wheat leaf segments cv. Kanzler are placed on agar in multiwell plates (24-well format). The leaf segments are then inoculated with a spore suspension of the fungus. Plates were stored in darkness at 19° C. and 75% relative humidity. The formulated test compound diluted in water was applied 1 day after inoculation. The leaf segments were incubated at 19° C. and 75% relative humidity under a light regime of 12 hours light/12 hours darkness in a climate cabinet and the activity of a compound was assessed as percent disease control compared to untreated when an appropriate level of disease damage appears in untreated check leaf segments (6 to 8 days after application).
The following compounds at 200 ppm in the applied formulation give at least 80% disease control in this test when compared to untreated control leaf disks under the same conditions, which show extensive disease development.

Phakopsora pachyrhizi = assay: Fungicidal activity against Phakopsora pachyrhizi / soybean / leaf disc preventative (Asian soybean rust); format: in vivo; details: foliar, 200 ppm in the applied formulation, soybean leaf disks, vs untreated control, read-out: disease control
Summary of the method: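 Preventative test: compound sprayed onto soybean leaf discs one day before spore inoculation of the lower leaf face. Incubation at 20 °C and 75% rh, first 24-36 h in darkness, then a 12 h light cycle. Disease control versus untreated discs read 12-14 days after application.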

[2] = tested on: Glomerella lagenarium (Colletotrichum lagenarium); assay: Fungicidal activity against Glomerella lagenarium (Colletotrichum lagenarium) liquid culture / cucumber / preventative (anthracnose); format: cell-based; details: Colletotrichum orbiculare, 72 h; 20 ppm in the applied formulation; liquid culture (PDB), growth inhibition measured photometrically 3 to 4 days after application; vs untreated control; read-out: disease control
Summary of the method: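 PDB broth seeded with cryo-stored conidia, added onto compound (DMSO solution) in 96-well plates; 24° C.; photometric growth read at 3–4 d post-application; % inhibition vs untreated check.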

[3] = tested on: Puccinia recondita f. sp. Tritici; assay: Fungicidal activity against Puccinia recondita f. sp. Tritici / wheat / leaf disc preventative (brown rust); format: in vivo; details: foliar, 200 ppm in the applied formulation, wheat leaf segments cv. Kanzler, inoculated 1 day after application, vs untreated control, read-out: disease control
Summary of the method: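 Wheat leaf segments (cv. Kanzler) on water agar were sprayed with test compound (DMSO stock diluted in 0.025% Tween20/water), then spore-inoculated 1 day later. Incubation at 19° C., 75% rh, 12 h light/12 h dark; percent disease control versus untreated segments scored 7 to 9 days after application. Tested at 200 ppm.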

| SMILES | pest or weed control at 200 ppm [1] [%] | pest or weed control at 200 ppm (Phakopsora pachyrhizi) [%] | inhibition of growth at 20 ppm [2] [%] | pest or weed control at 200 ppm [3] [%] | melting point [°C] |
| --- | --- | --- | --- | --- | --- |
| CON=CC(C)NC(=O)c1ccc(-c2noc(C(F)(F)F)n2)cc1 (stereo not shown) [Compound 1.3, N-(2-methoxyimino-1-methyl-ethyl)-4-[5-(trifluoromethyl)-1,2,4-oxadiazol-3-yl]benzamide] | ≥ 80 | ≥ 80 | ≥ 80 | ≥ 80 | 164 to 165 |
| C#CCO/N=C\NC(=O)c1ccc(-c2noc(C(F)(F)F)n2)cc1 [Compound 1.6, N-[(Z)-prop-2-ynoxyimino-methyl]-4-[5-(trifluoromethyl)-1,2,4-oxadiazol-3-yl]benzamide] | ≥ 80 | ≥ 80 | ≥ 80 | ≥ 80 | 114 to 119 |
| CON=C(C)CNC(=O)c1ccc(-c2noc(C(F)(F)F)n2)cc1 [Compound 1.133, N-(2-methoxyimino-propyl)-4-[5-(trifluoromethyl)-1,2,4-oxadiazol-3-yl]benzamide] | ≥ 80 | ≥ 80 | ≥ 80 | ≥ 80 | – |
| C=CCON=C(C)CNC(=O)c1ccc(-c2noc(C(F)(F)F)n2)cc1 [Compound 1.135, N-(2-allyloxyimino-propyl)-4-[5-(trifluoromethyl)-1,2,4-oxadiazol-3-yl]benzamide] | ≥ 80 | ≥ 80 | ≥ 80 | ≥ 80 | – |
| CC(CNC(=O)c1ccc(-c2noc(C(F)(F)F)n2)cc1)=NOC(C)C [Compound 1.138, N-(2-isopropoxyimino-propyl)-4-[5-(trifluoromethyl)-1,2,4-oxadiazol-3-yl]benzamide] | ≥ 80 | ≥ 80 | ≥ 80 | ≥ 80 | – |
| CC(CNC(=O)c1ccc(-c2noc(C(F)(F)F)n2)cc1)=NOCC1CC1 [Compound 1.145, N-[2-(cyclopropyl-methoxyimino)propyl]-4-[5-(trifluoromethyl)-1,2,4-oxadiazol-3-yl]benzamide] | ≥ 80 | ≥ 80 | ≥ 80 | ≥ 80 | – |
| CC(CNC(=O)c1ccc(-c2noc(C(F)(F)F)n2)cc1)=NOC1COC1 [Compound 1.146, N-[2-(oxetan-3-yloxyimino)propyl]-4-[5-(trifluoromethyl)-1,2,4-oxadiazol-3-yl]benzamide] | ≥ 80 | ≥ 80 | ≥ 80 | ≥ 80 | – |
| CON=CC(C)NC(=O)c1ccc(-c2noc(C(F)(F)F)n2)cc1F (stereo not shown) [Compound 1.155, 2-fluoro-N-(2-methoxyimino-1-methyl-ethyl)-4-[5-(trifluoromethyl)-1,2,4-oxadiazol-3-yl]benzamide] | – | ≥ 80 | ≥ 80 | ≥ 80 | 132 to 134 |
| CCON=CC(C)NC(=O)c1ccc(-c2noc(C(F)(F)F)n2)cc1F (stereo not shown) [Compound 1.156, N-(2-ethoxyimino-1-methyl-ethyl)-2-fluoro-4-[5-(trifluoromethyl)-1,2,4-oxadiazol-3-yl]benzamide] | ≥ 80 | ≥ 80 | ≥ 80 | – | 113 to 115 |
| CON=CCNC(=O)c1ccc(-c2noc(C(F)(F)F)n2)cc1F [Compound 1.169, 2-fluoro-N-(2-methoxyimino-ethyl)-4-[5-(trifluoromethyl)-1,2,4-oxadiazol-3-yl]benzamide] | – | – | – | – | 116 to 118 |
| CO/N=C/CN(C(=O)c1ccc(-c2noc(C(F)(F)F)n2)cc1)C1CC1 [Compound 1.170, N-cyclopropyl-N-[(2E)-2-methoxyiminoethyl]-4-[5-(trifluoromethyl)-1,2,4-oxadiazol-3-yl]benzamide] | – | – | – | – | 60 to 62 |
